Measured values from US12662473B2, “Inhibitors for programmed cell necrosis and preparation method therefor and use thereof” (SHANGHAI INSTITUTE OF ORGANIC CHEMISTRY, CHINESE ACADEMY OF …, priority 2019, dated 2026).

What was measured:
RIPK1(1-330) protein = target: T1, RIPK1(1-330) protein (Homo sapiens, UniProt Q13546); experiment: ADP-Glo kinase activity assay at different ATP concentrations; format: biochemical; design: RIPK1(1-330) protein with a final concentration of 2 μL and ATP; made in house; conditions: FIG. 4
T1 sequence (Q13546 1-330): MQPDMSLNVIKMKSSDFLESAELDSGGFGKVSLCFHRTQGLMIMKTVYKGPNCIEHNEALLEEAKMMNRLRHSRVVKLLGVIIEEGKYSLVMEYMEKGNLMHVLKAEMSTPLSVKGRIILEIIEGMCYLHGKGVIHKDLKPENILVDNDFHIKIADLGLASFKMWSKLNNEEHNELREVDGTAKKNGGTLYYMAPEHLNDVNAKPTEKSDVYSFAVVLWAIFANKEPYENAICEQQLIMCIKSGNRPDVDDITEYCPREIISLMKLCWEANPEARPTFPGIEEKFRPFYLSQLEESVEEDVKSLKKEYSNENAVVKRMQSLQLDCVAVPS
Method: The adopted biological test protocol was: The effect of compound QY-1-98 on the kinase activity of RIPK1(1-330) protein was tested. The purified RIPK1(1-330) protein in vitro retained the complete kinase activity domain and maintained good kinase activity. Through the IC50 of the compounds of the present invention inhibiting RIPK1 kinase activity in the environment with different concentrations of ATP, the binding mode of the compounds to RIPK1 is obtained. Nec-1s, a known ATP-noncompetitive inhibitor of RIPK1, was used as a control.
RIPK1(1-330) protein with a final concentration of […] and ATP (1× kinase buffer) with a corresponding concentration were added to the 384-well plate, with a […]. At least 3 duplicate wells were set in each group. The reaction was carried out at 37° C. for 2H. 5 μL of ADP-Glo reagent was added, which is used to stop the kinase reaction and remove residual ATP from the reaction system. The reaction solution was placed at room temperature for 40 min 10 μL of kinase detection reagent was added, which is used to convert ADP to ATP and luciferase and luciferin were introduced to detect ATP in the system. The reaction was carried out at room temperature for 1H. Luminescence was detected using the 7500 Fast Real-Time PCR System. The IC50 of the compounds inhibiting the kinase reaction was calculated using Prism Graphpad statistical software.

RIPK1 (S161A) = experiment: Effect of RIPK1 S161A mutation on compound activity (293T overexpression; S161A MEFs cell death with TNFα and 5z7); format: cell-based, murine; conditions: FIG. 5
Source text: The biological test protocol used in this experiment was to test the effect of mutation of serine at position 161 of RIPK1 to alanine on the activity of compound QY-1-98. The experiment was verified by two aspects. On the one hand, after RIPK1 was overexpressed in 293T cells, RIPK1 would be activated by autophosphorylation, and the activity of small molecules to inhibit the phosphorylation of RIPK1 was detected at this time. On the other hand, in murine-derived MEFs cells with RIPK1 knockout, and RIPK1 (S161A) put back, RIPK1-dependent cell apoptosis can be induced by using TNFα and 5z7 (TAK1 inhibitor), and the effect of the compound to inhibit cell death was detected at this time.
1. 293T cells overexpressing RIPK1 experiment: RIPK1 plasmid with N-terminal 3×FLAG was constructed on PcDNA vector. 293T cells were digested, and then diluted to 8×10^5/ml. 1 ml of cells were added to each well of a 12-well cell culture plate, and the plate was placed in a cell culture incubator (37° C., 5% CO2) for 12 hours before transfection. […] After cooling, the samples were detected by western-blot after electrophoresis on SDS-PAGE gel (9%). […] The plate was placed in cell incubator (37° C., 5% CO2) for 14 h, 15 μl of Cell Titer-Glo solution was added to each well, the mixture was incubated at room temperature for 30 min, and the luminescence value was detected to measure the level of intracellular ATP. […]

Cc1noc([C@@H]2CCCN2C(=O)C(C)(C)Oc2ccc(Cl)cc2)n1 [QY-1-98]
activity of RIPK1 (1-330) protein kinase in vitro (RIPK1(1-330) protein; ADP-Glo): can inhibit the activity of RIPK1 (1-330) protein kinase in vitro | change of IC50 with the increase of ATP concentration (RIPK1(1-330) protein; different ATP concentrations): does not change significantly | inhibition of programmed cell necrosis after mutation of serine 161 of RIPK1 to alanine (RIPK1 (S161A)): can still inhibit the programmed cells necrosis
